Test results taken from article doi:10.1101/2025.08.06.668955, “High-Affinity, Structure-Validated and Selective Macrocyclic Peptide Tools for Chemical Biology Studies of Huntingtin” (bioRxiv, 2025).
Where a SMILES comes first, the peptide text is derived from it. Bridges are numbered along the chain shown (N, C = ends).

Columns and labels:
[1] = biological target: T1, HTTQ54 (Homo sapiens, UniProt P42858, INS38QQQQQQQQQQQQQQQQQQQQQQQQQQQQQQQQQ); assay: Thermal shift assay (DSF), HTTQ54; format: binding; conditions: SYPRO Orange, 0.25 mg/mL protein, macrocycle up to 10 μM, 2.5% DMSO, n=3
T1 construct: FLAG; made in house; host or cells: Sf9 insect cells (baculovirus)
T1 sequence (P42858 with tags, fused parts or gaps with the stated changes): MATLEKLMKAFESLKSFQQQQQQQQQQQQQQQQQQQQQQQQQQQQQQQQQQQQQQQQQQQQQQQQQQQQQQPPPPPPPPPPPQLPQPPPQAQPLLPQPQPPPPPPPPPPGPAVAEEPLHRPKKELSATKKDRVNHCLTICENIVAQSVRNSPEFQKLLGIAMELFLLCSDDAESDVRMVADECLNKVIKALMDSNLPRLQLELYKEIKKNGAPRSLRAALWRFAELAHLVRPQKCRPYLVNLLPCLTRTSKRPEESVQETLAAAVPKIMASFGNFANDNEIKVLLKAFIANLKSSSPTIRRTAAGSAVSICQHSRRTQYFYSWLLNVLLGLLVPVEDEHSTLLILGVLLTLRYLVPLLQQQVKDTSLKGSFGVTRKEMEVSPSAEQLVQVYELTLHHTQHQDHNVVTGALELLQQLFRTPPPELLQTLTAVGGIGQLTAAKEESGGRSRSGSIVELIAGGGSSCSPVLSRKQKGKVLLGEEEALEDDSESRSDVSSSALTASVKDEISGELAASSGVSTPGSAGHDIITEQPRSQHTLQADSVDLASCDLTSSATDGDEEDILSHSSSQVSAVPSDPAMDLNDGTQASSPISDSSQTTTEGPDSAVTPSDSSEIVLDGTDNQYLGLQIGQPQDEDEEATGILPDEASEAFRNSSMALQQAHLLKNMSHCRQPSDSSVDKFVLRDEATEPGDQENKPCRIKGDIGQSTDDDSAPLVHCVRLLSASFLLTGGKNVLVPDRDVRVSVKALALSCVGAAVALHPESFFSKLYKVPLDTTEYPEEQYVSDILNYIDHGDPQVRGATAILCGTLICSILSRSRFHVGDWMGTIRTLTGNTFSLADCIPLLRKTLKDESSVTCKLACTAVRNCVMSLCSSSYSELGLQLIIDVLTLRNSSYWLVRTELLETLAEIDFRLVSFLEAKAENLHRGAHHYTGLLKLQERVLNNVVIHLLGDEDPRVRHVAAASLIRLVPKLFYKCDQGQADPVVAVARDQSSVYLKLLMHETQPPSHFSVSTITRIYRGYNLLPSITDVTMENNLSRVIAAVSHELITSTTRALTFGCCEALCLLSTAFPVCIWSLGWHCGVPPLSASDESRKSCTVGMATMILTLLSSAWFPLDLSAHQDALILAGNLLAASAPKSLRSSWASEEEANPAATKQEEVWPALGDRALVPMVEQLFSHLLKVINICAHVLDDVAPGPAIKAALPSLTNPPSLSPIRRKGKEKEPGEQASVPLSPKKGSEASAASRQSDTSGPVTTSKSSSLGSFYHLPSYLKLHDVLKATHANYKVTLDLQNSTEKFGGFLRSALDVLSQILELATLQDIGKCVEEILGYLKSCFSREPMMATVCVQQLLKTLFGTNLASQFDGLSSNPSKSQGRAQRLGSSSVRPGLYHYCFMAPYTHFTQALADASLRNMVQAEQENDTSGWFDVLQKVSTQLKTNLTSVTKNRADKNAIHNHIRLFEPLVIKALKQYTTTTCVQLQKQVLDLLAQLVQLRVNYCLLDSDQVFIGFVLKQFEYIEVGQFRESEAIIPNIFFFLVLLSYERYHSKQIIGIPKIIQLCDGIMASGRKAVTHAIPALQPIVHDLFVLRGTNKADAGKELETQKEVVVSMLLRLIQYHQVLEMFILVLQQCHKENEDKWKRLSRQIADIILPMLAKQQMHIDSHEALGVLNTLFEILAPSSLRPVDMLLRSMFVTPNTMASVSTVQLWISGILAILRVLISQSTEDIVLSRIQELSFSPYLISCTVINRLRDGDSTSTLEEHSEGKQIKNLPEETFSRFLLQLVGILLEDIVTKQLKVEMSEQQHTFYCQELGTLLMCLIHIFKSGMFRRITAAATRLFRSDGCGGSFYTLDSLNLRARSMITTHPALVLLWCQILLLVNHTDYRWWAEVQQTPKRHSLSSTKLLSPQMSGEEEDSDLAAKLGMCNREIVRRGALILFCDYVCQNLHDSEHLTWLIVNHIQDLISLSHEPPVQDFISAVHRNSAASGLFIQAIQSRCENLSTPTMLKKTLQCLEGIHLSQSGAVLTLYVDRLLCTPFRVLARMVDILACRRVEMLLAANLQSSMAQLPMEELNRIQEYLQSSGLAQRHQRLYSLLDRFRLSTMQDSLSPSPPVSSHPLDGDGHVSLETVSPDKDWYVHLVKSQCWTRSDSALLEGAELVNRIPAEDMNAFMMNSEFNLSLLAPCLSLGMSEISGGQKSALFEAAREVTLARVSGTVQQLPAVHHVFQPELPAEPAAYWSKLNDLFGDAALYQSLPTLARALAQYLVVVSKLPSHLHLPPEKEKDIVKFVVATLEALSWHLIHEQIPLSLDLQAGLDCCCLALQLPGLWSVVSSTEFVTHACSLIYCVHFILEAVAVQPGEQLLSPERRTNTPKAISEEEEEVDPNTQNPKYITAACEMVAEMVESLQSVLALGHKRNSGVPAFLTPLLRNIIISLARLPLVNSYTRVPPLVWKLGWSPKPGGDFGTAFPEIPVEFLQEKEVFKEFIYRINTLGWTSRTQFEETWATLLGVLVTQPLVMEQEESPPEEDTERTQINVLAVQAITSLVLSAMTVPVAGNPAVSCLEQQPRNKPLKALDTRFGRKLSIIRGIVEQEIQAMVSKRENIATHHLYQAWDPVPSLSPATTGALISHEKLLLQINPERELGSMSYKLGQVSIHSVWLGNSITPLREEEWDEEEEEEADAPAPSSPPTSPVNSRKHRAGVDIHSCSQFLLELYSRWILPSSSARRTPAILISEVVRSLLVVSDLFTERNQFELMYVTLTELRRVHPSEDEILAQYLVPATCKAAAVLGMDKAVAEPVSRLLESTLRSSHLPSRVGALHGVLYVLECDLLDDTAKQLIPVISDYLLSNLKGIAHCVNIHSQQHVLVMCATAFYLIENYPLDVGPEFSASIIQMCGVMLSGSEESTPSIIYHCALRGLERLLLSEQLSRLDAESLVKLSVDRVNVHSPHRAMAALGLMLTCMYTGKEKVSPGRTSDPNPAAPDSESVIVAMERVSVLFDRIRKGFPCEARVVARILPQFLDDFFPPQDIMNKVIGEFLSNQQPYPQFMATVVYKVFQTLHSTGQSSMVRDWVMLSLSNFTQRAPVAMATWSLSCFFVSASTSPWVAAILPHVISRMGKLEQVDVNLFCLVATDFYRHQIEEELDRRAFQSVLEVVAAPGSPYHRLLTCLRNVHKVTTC
Experimental: In an Axygen® 384-well PCR microplate (REF# PCR-384-LC480-W-NF, Corning), samples were mixed to yield a final concentration of 0.25 mg/mL Q54 or Q23/HAP40, a 5-pt 2-fold serial dilution of each macrocycle (top concentration of 10 μM, 2.5% DMSO), and 5X SYPRO™ Orange (CAT# S6650, Thermo Fisher Scientific) in buffer (20 mM HEPES pH 7.4, 150 mM NaCl, 1 mM TCEP, 0.005% Tween-20). Differential Scanning Fluorimetry (DSF) was performed using a LightCycler® 480 (Roche LifeSciences) set to a 4 °C/min temperature ramp (20–95 °C) and fluorescence detection at 580 nm. Melting temperatures (Tm) were obtained from the minima of the negative derivative of each curve. The propagated error of the thermal shift (ΔTm) was calculated from the standard deviation of each Tm mean (n=3). To ensure a maximally macrocycle-bound fraction (KD ~10 nM; ~100% bound) at 0.25 mg/mL HTT or HTT-HAP40 (~0.7 μM), the upper limit of macrocycle tested was 10 μM.
98 Supplementary Figure. 10. Thermal shift (ΔTm) induced by macrocycle binding. Melting
99 temperature of HTTQ54 (left) with HL5 or HL2 minus HTTQ54 with DMSO (46.5 °C), and (right)
100 HTTQ23-HAP40 with HD4, HL2, HL5, HHD2, HHD3, or HHL1 minus HTTQ23-HAP40 with DMSO
101 (51.0 °C). ΔTm significance was determined using an unpaired t-test with Welch correction,
102 comparing to the mean Tm of Q54 or Q23-HAP40 with DMSO; *P < 0.05, **P < 0.01, ***P <
103 0.001. […]

[2] = test system: HTT; assay: HL2 macrocycle pulldown from isogenic neuronal progenitor cells (NPCs), LC-MS/MS; format: binding, human; conditions: isogenic NPC lines Q30/Q19, Q45/Q19 and Q81/Q27
Text: We extended our analysis to isogenic neuronal progenitor cells (NPCs), which more closely resemble the neuronal populations affected in HD, both functionally and in terms of gene expression profiles ([Ooi et al., 2019]). […] Thus, we compared HL2 protein enrichment profiles across isogenic NPC lines harboring non-expanded (Q30/Q19) and expanded CAG repeats (Q45/Q19 and Q81/Q27).
Successful macrocycle-mediated pulldown was first confirmed by western blot in all NPC lines (Supplementary Figure 14a). […] HTT and HAP40 were the only proteins consistently overlapping across all three NPC lines (Supplementary Figure 14b). […]
Cells were harvested by centrifugation at 1,500 rpm for 5 minutes, washed twice with PBS, and snap-frozen. […] Protein concentration was determined by BCA assay (Thermo Fisher Scientific, 23225), yielding approximately 4 mg of protein on average. […]
All sample preparation, LC MS/MS data collection, and MS data searches were carried out at the SPARC BioCentre at The Hospital for Sick Children (Toronto, ON, Canada). […] Samples were analyzed by liquid chromatography tandem mass spectrometry (LC-MS/MS) using an EASY-nanoLC 1200 system with a 1 h analysis and an Orbitrap Fusion™ Lumos™ Tribrid™ Mass Spectrometer (Thermo Fisher Scientific). […]

CC(C)C[C@@H]1NC(=O)[C@H](Cc2ccc(O)cc2)NC(=O)[C@H](CCCNC(=N)N)NC(=O)[C@H](C)NC(=O)[C@H]([C@@H](C)O)NC(=O)[C@H](Cc2ccc(O)cc2)NC(=O)CSC[C@@H](C(N)=O)NC(=O)[C@H](CCCCN)NC(=O)[C@H](Cc2ccc(O)cc2)NC(=O)[C@H](Cc2c[nH]cn2)NC(=O)[C@H](CC(C)C)NC(=O)[C@H]([C@@H](C)O)NC(=O)CNC(=O)[C@H](CC(C)C)NC(=O)[C@H]([C@@H](C)O)NC1=O [HL2] ({CH2CO}-YTARYLTLGTLHYKC-NH2; thioether N-15; C-terminus assumed)
Thermal shift (ΔTm) of HTTQ54 induced by macrocycle [1]: No significant thermal effects | Enrichment of HTT in HL2 pulldown from NPC lines by LC-MS/MS [2]: most abundantly enriched protein across all lines
